Tests used:
[1] = test system: MIA-PaCa-2 (Pancreatic Carcinoma); assay: combination Emax (second highest fraction inhibited in the dose matrix, 72 h); higher = more inhibition; extreme values may be limits of the assay
How it was run: (§1)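 Cell lines grown in DMEM/F12 or RPMI with 10% FBS were plated in 1536-well plates and held 24 hours at 37°C, 5% CO2 before 72 hours of exposure to two-drug dose matrices, with DMSO typically at 0.2%. CellTiter-Glo 2.0 luminescence gave viability, which was converted to inhibition. Vehicle wells were set to 0 and blank wells to 1. Combination Emax is the second-highest inhibition in the matrix, and Bliss excess is the observed combination effect minus the expected EA + EB − EA·EB, where EA and EB are the single-agent effects.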

[2] = test system: LU-65 (Non-Small Cell Lung Carcinoma); assay: as above
How it was run: as §1

TK10 (Kidney Carcinoma) = assay: as above
How it was run: as §1

UACC-62 (Melanoma) = assay: as above
How it was run: as §1

D-263MG (Glioblastoma) = assay: as above
How it was run: as §1

EW-24 (Ewing's Sarcoma) = assay: as above
How it was run: as §1

[3] = test system: RF-48 (B-Cell Non-Hodgkin's Lymphoma); assay: as above
How it was run: as §1

ACHN (Kidney Carcinoma) [4] = assay: as above
How it was run: as §1

[5] = test system: NCI-H358 (Lung Adenocarcinoma); assay: as above
How it was run: as §1

NB69 (Neuroblastoma) [6] = assay: as above
How it was run: as §1

[7] = test system: BT-549 (Breast Carcinoma); assay: as above
How it was run: as §1

[8] = test system: AMO-1 (Plasma Cell Myeloma); assay: as above
How it was run: as §1

YH-13 (Glioblastoma) [9] = assay: as above
How it was run: as §1

[10] = test system: EoL-1-cell (Acute Myeloid Leukemia); assay: as above
How it was run: as §1

[11] = test system: MLMA (Other Blood Carcinomas); assay: as above
How it was run: as §1

[12] = test system: NCI-H727 (Other Solid Carcinomas); assay: Bliss excess, mean over the matrix (fraction); higher = more synergy
How it was run: as §1

ACHN (Kidney Carcinoma) [13] = assay: as above
How it was run: as §1

NB69 (Neuroblastoma) [14] = assay: as above
How it was run: as §1

YH-13 (Glioblastoma) [15] = assay: as above
How it was run: as §1

[16] = test system: KARPAS-299 (T-Cell Non-Hodgkin's Lymphoma); assay: as above
How it was run: as §1
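Throughout, for Bliss excess, mean over the matrix: after 72 h of two-drug dosing.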

Row | SMILES | combination Emax [1] | combination Emax [2] | combination Emax (TK10 (Kidney Carcinoma)) | combination Emax (UACC-62 (Melanoma)) | combination Emax (D-263MG (Glioblastoma)) | combination Emax (EW-24 (Ewing's Sarcoma)) | combination Emax [3] | combination Emax (ACHN (Kidney Carcinoma) [4]) | combination Emax [5] | combination Emax (NB69 (Neuroblastoma) [6]) | combination Emax [7] | combination Emax [8] | combination Emax (YH-13 (Glioblastoma) [9]) | combination Emax [10] | combination Emax [11] | Bliss excess [12] | Bliss excess (ACHN (Kidney Carcinoma) [13]) | Bliss excess (NB69 (Neuroblastoma) [14]) | Bliss excess (YH-13 (Glioblastoma) [15]) | Bliss excess [16]
1 | CN(CCO)CC[C@H](CSc1ccccc1)Nc1ccc(S(=O)(=O)NC(=O)c2ccc(N3CCC([C@@H](O)c4ccccc4-c4ccc(Cl)cc4)CC3)cc2)cc1S(=O)(=O)C(F)(F)F [AZD4320] + C1CN(CCC1(C(=O)N[C@@H](CCO)C2=CC=C(C=C2)Cl)N)C3=NC=NC4=C3C=CN4 [Capivasertib] (first compound max 1 µM, 7x7, partner max 3 µM) | 0.133 | 0.612 | 0.39 | 0.341 | 0.0907 | 0.869 | 0.817 | 0.121 | 0.273 | 0.652 | 0.294 | 0.317 | 0.266 | 1 | 0.384 | -0.0891 | -0.0341 | -0.0554 | -0.0491 | -0.0024
2 | CN(CCO)CC[C@H](CSc1ccccc1)Nc1ccc(S(=O)(=O)NC(=O)c2ccc(N3CCC([C@@H](O)c4ccccc4-c4ccc(Cl)cc4)CC3)cc2)cc1S(=O)(=O)C(F)(F)F [AZD4320] + C=CCn1c(=O)c2cnc(Nc3ccc(N4CCN(C)CC4)cc3)nc2n1-c1cccc(C(C)(C)O)n1 [AZD1775] (first compound max 1 µM, partner max 1 µM) | 0.6 | 0.763 | 0.571 | 0.71 | 0.381 | 0.913 | 0.885 | 0.986 | 0.498 | 0.952 | 0.751 | 0.732 | 0.449 | 1 | 0.994 | -0.0587 | 0.0342 | 0.0032 | -0.0163 | 0.0477
3 | CN(CCO)CC[C@H](CSc1ccccc1)Nc1ccc(S(=O)(=O)NC(=O)c2ccc(N3CCC([C@@H](O)c4ccccc4-c4ccc(Cl)cc4)CC3)cc2)cc1S(=O)(=O)C(F)(F)F [AZD4320] + CC(=O)O[C@H]1C(=O)[C@@]2(C)[C@H]([C@H](OC(=O)c3ccccc3)[C@]3(O)C[C@H](OC(=O)[C@H](O)[C@@H](NC(=O)c4ccccc4)c4ccccc4)C(C)=C1C3(C)C)[C@]1(OC(C)=O)CO[C@@H]1C[C@@H]2O [Paclitaxel] (first compound max 1 µM, 7x7, partner max 3 µM) | 0.898 | 0.951 | 0.821 | 0.808 | 0.95 | 0.968 | 0.989 | 0.71 | 0.916 | 1 | 0.853 | 1 | 1 | 1 |  | 0.101 | -0.0319 | 0.0148 | 0.0619 | -0.079
4 | CN(CCO)CC[C@H](CSc1ccccc1)Nc1ccc(S(=O)(=O)NC(=O)c2ccc(N3CCC([C@@H](O)c4ccccc4-c4ccc(Cl)cc4)CC3)cc2)cc1S(=O)(=O)C(F)(F)F [AZD4320] + CCN(CCO)CCCOc1ccc2c(Nc3cc(CC(=O)Nc4cccc(F)c4)[nH]n3)ncnc2c1 [AZD2811] (first compound max 1 µM, 7x7, partner max 1 µM) | 0.512 | 0.432 | 0.439 | 0.201 | 0.653 | 0.865 | 0.881 | 0.207 | 0.269 | 0.902 | 0.432 | 0.291 | 0.704 | 1 | 0.228 | -0.0221 | 0.0089 | -0.0077 | 0.0819 | 0.0104
5 | CN(CCO)CC[C@H](CSc1ccccc1)Nc1ccc(S(=O)(=O)NC(=O)c2ccc(N3CCC([C@@H](O)c4ccccc4-c4ccc(Cl)cc4)CC3)cc2)cc1S(=O)(=O)C(F)(F)F [AZD4320] + C[C@@H]1COCCN1C2=NC(=NC(=C2)C3(CC3)[S@](=N)(=O)C)C4=C5C=CNC5=NC=C4 [AZD6738] (first compound max 1 µM, 7x7, partner max 10 µM) | 0.632 | 0.781 | 0.866 | 0.7 | 0.758 | 0.954 | 0.917 | 0.986 | 0.705 | 0.959 | 0.552 | 0.826 | 0.568 | 1 | 0.83 | -0.0735 | -0.0099 | -0.0533 | -0.0035 | -0.0153
6 | CN(CCO)CC[C@H](CSc1ccccc1)Nc1ccc(S(=O)(=O)NC(=O)c2ccc(N3CCC([C@@H](O)c4ccccc4-c4ccc(Cl)cc4)CC3)cc2)cc1S(=O)(=O)C(F)(F)F [AZD4320] + C[C@@H](Nc1cc(F)cc(F)c1)c1cc(C(=O)N(C)C)cc2c(=O)cc(N3CCOCC3)oc12 [AZD8186] (first compound max 1 µM, 7x7, partner max 3 µM) | 0.444 | 0.483 | 0.54 | 0.67 | 0.38 | 0.921 | 0.959 | 0.252 | 0.394 | 0.97 | 0.456 | 0.244 | 0.694 | 1 | 0.701 | 0.0309 | 0.0163 | -0.0381 | 0.0513 | 0.044
7 | CN(CCO)CC[C@H](CSc1ccccc1)Nc1ccc(S(=O)(=O)NC(=O)c2ccc(N3CCC([C@@H](O)c4ccccc4-c4ccc(Cl)cc4)CC3)cc2)cc1S(=O)(=O)C(F)(F)F [AZD4320] + Cc1cc2ncnn2cc1Nc1ncc2c(n1)n(C1CCOCC1)c(=O)n2C [AZD7648] (first compound max 1 µM, 7x7, partner max 10 µM) | 0.178 | 0.494 | 0.444 | 0.248 | 0.108 | 0.851 | 0.809 | 0.162 | 0.186 | 0.801 | 0.178 | 0.216 | 0.227 | 1 | 0.474 | -0.0609 | -0.0186 | -0.0649 | -0.0186 | -0.0343
8 | CN(CCO)CC[C@H](CSc1ccccc1)Nc1ccc(S(=O)(=O)NC(=O)c2ccc(N3CCC([C@@H](O)c4ccccc4-c4ccc(Cl)cc4)CC3)cc2)cc1S(=O)(=O)C(F)(F)F [AZD4320] + Cn1cnc2c(F)c(Nc3ccc(Br)cc3Cl)c(C(=O)NOCCO)cc21 [Selumetinib] (first compound max 1 µM, 7x7, partner max 3 µM) | 0.61 | 0.753 | 0.402 | 0.868 | 0.237 | 0.892 | 0.951 | 0.346 | 0.564 | 0.998 | 0.327 | 0.418 | 0.511 | 1 | 0.496 | 0.0963 | 0.0429 | -0.0973 | -0.0219 | 0.0476
9 | CN(CCO)CC[C@H](CSc1ccccc1)Nc1ccc(S(=O)(=O)NC(=O)c2ccc(N3CCC([C@@H](O)c4ccccc4-c4ccc(Cl)cc4)CC3)cc2)cc1S(=O)(=O)C(F)(F)F [AZD4320] + Nc1ccn([C@@H]2O[C@H](CO)[C@@H](O)C2(F)F)c(=O)n1 [Gemcitabine] (first compound max 1 µM, 7x7, partner max 0.3 µM) | 0.771 | 0.492 | 0.301 | 0.72 | 0.363 | 0.98 | 0.955 | 0.969 | 0.396 | 0.997 | 0.199 | 0.953 | 0.852 | 1 | 0.896 | 0.0335 | 0.0947 | -0.0203 | 0.0368 | 0.0251
10 | Cc1cc2ncnn2cc1Nc1ncc2c(n1)n(C1CCOCC1)c(=O)n2C [AZD7648] + C=CCn1c(=O)c2cnc(Nc3ccc(N4CCN(C)CC4)cc3)nc2n1-c1cccc(C(C)(C)O)n1 [AZD1775] (first compound max 10 µM, partner max 1 µM) | 0.558 | 0.692 | 0.63 | 0.536 | 0.392 | 0.458 | 0.532 | 0.893 | 0.524 | 0.887 | 0.679 | 0.755 | 0.449 | 0.978 | 0.89 | 0.024 | -0.0178 | -0.0504 | 0.0076 | 0.0072
11 | Cc1cc2ncnn2cc1Nc1ncc2c(n1)n(C1CCOCC1)c(=O)n2C [AZD7648] + CCN(CCO)CCCOc1ccc2c(Nc3cc(CC(=O)Nc4cccc(F)c4)[nH]n3)ncnc2c1 [AZD2811] (first compound max 10 µM, 7x7, partner max 1 µM) | 0.516 | 0.37 | 0.42 | 0.312 | 0.473 | 0.45 | 0.303 | 0.329 | 0.326 | 0.655 | 0.361 | 0.469 | 0.482 | 0.984 | 0.351 | -0.0003 | -0.0051 | -0.0195 | -0.0762 | 0.0493
12 | Cc1cc2ncnn2cc1Nc1ncc2c(n1)n(C1CCOCC1)c(=O)n2C [AZD7648] + CN(C)CCCOc1ccc(-c2ccc3ncc4c(c3c2)n(C2CCOCC2)c(=O)n4C)cn1 [AZD0156] (first compound max 10 µM, 7x7, partner max 1 µM) | 0.401 | 0.334 | 0.442 | 0.302 | 0.25 | 0.364 | 0.349 | 0.293 | 0.349 | 0.565 | 0.254 | 0.431 | 0.345 | 0.238 | 0.671 | 0.0162 | 0.0104 | -0.0382 | -0.0263 | 0.0477
